# “Also recorded” adds a separate entry of the source.
# How the values were obtained:
# 5-HT2A receptor = assay: [125I]DOI binding displacement, 5-HT2A; parameters: species or system human; settings: for inhibition of [125I]DOI specific binding: mean of duplicates (n = 2)
# Protocol: (§1) The binding assay was performed by Eurofins Cerep (France) according to Bryant et al., 1996 [15]. Briefly, the binding of lunasin to 5-HT2A and 5-HT2C receptors was estimated on its ability to displace the specific binding of [^125I]DOI on cell membrane suspensions of HEK-293 cells expressing human recombinant 5-HT2A and 5-HT2C receptors. The radioligand [^125I]DOI has high affinity for 5-HT2A (Kd: 0.3 nM) and 5-HT2C (Kd: 0.9 nM) receptors. Lunasin was tested at concentrations of 1, 10 and 100 µM. The results were expressed as a percent of radioligand specific binding (n = 2).
# [1] = system: locomotion altered by ketamine; settings: central (intracisternal) injection; cited from earlier work
# [2] = system: brain monoamine levels, amphetamine-treated mice; assay: Brain monoamines and metabolites, amphetamine-treated mice (UHPLC-TOF-MS); assay type: in vivo, male albino ICR mice; settings: for amphetamine-altered brain noradrenaline level (words): lunasin 0.1 nmol/mouse i.n. As to 5-HIAA (brain level, ng/g): key: ↑: increase; ↓: decrease; N: normalization; Nc: no changes. As to 5-HT (brain level, ng/g): key: ↑: increase; ↓: decrease; N: normalization; Nc: no changes. As to DA (brain dopamine level, ng/g): key: ↑: increase; ↓: decrease; N: normalization; Nc: no changes. As to NA (brain noradrenaline level, ng/g): key: ↑: increase; ↓: decrease; N: normalization; Nc: no changes.
# brain monoamine levels = assay: Brain monoamines and metabolites, lunasin per se (UHPLC-TOF-MS); assay type: in vivo, male albino ICR mice; settings: lunasin i.n. alone; for brain dopamine level, lunasin per se (words): p < 0.01
# [3] = system: apomorphine-induced climbing activity; settings: direct central administration (intracisternally); cited from earlier work
# [4] = system: PCP-induced hyperlocomotion in ICR mice; assay: Open field locomotor activity, phencyclidine-induced hyperlocomotion; assay type: in vivo, male albino ICR mice; settings: lunasin 0.1 or 1 nmol/mouse i.n. after PCP 5 mg/kg i.p., n = 7–8
# 5-HT2C receptor = assay: [125I]DOI binding displacement, 5-HT2C; parameters: species or system human; settings: for inhibition of [125I]DOI specific binding: mean of duplicates (n = 2)
# Protocol: as §1
# [5] = system: amphetamine-induced hyper-locomotion; settings: direct central administration (intracisternally); cited from earlier work
# Excerpt: (§2) Thus, lunasin at both doses normalized to control the level of behavioural changes after amphetamine in ...
# [6] = system: dopamine D2 receptor subtype; settings: cited from earlier work
# Excerpt: as §2
# [7] = system: dopamine D1 receptor subtype; settings: cited from earlier work
# Excerpt: as §2
# [8] = system: DOI-induced hyperlocomotion in ICR mice; assay: Open field locomotor activity, DOI-induced hyperlocomotion; assay type: in vivo, male albino ICR mice; settings: for effect on DOI hyperactivity (words): lunasin 1 nmol/mouse i.n., p = 0.0137
# [9] = system: locomotor activity of ICR mice; assay: Open field locomotor activity, lunasin per se; assay type: in vivo, male albino ICR mice; settings: lunasin 0.1 or 1 nmol/mouse i.n. alone; 15-min test; n = 7–8
# [10] = system: brain monoamine levels, DOI-treated mice; assay: Brain monoamines and metabolites, DOI-treated mice (UHPLC-TOF-MS); assay type: in vivo, male albino ICR mice
# [11] = system: amphetamine-induced hyperlocomotion in ICR mice; assay: Open field locomotor activity, amphetamine-induced hyperlocomotion; assay type: in vivo, male albino ICR mice; settings: for Locomotion (distance, cm): 15-min open field; for Locomotion (distance, cm) / effect on amphetamine hyperlocomotion: n = 7–8
# [12] = 1 and 10 µM, HEK-293 cell membranes
# [13] = lunasin 0.1 nmol/mouse i.n. + amphetamine 3 mg/kg i.p., n = 6–8
# [14] = lunasin 1 nmol/mouse i.n. + amphetamine 3 mg/kg i.p., n = 6–8
# [15] = lunasin 1 nmol/mouse i.n., p < 0.01
# [16] = lunasin 0.1 and 1 nmol/mouse i.n., p < 0.0001
# [17] = lunasin i.n., amphetamine-treated mice, dose not stated
# [18] = lunasin i.n., DOI-treated mice, dose not stated
# [19] = lunasin 0.1 nmol/mouse i.n. + DOI 3 mg/kg i.p., n = 6–8
# [20] = lunasin 1 nmol/mouse i.n. + DOI 3 mg/kg i.p., n = 6–8
substance,measurement,setting,value
lunasin,inhibition of [125I]DOI specific binding,"5-HT2A receptor; 1 µM, HEK-293 cell membranes",1.6%
same,inhibition of [125I]DOI specific binding,"5-HT2A receptor; 10 µM, HEK-293 cell membranes",2.6%
same,binding activity,5-HT2A receptor; 100 µM,weak binding activity
same,inhibition of [125I]DOI specific binding,"5-HT2A receptor; 100 µM, HEK-293 cell membranes",32.5%
same,binding activity,5-HT2A receptor; [12],did not show binding activity
same,receptor affinity,"5-HT2A receptor; compared with DOI, abstract",low affinity of lunasin (at µM concentrations)
same,effect on locomotion altered by ketamine,[1],did not influence locomotion altered by ketamine
same,"5-HIAA (brain level, ng/g)",[2]; [13],N
same,"DA (brain dopamine level, ng/g)",[2]; [13],N
same,"NA (brain noradrenaline level, ng/g)",[2]; [13],N
same,amphetamine-altered brain noradrenaline level (words),[2]; p < 0.01,reversed amphetamine-induced and DOI-induced (both tested doses) noradrenaline alterations to the control values
same,amphetamine-altered brain noradrenaline level (words),"[2]; p < 0.01, listed as lunasin",normalized noradrenaline level to control values
same,"5-HIAA (brain level, ng/g)",[2]; [14],N
same,"5-HT (brain level, ng/g)",[2]; [14],N
same,"DA (brain dopamine level, ng/g)",[2]; [14],N
same,"HVA (brain level, ng/g)",[2]; [14],N
same,amphetamine-altered brain HVA level,"[2]; lunasin 1 nmol/mouse i.n., p < 0.001",normalized the altered levels of HVA; also recorded: reversed to control value the elevated levels of dopamine and its metabolite HVA
same,amphetamine-increased brain serotonin level,[2]; [15],decreased the augmented serotonin; also recorded: fully normalized the levels of serotonin
same,amphetamine-increased brain 5-HIAA level,"[2]; lunasin 0.1 and 1 nmol/mouse i.n. (both doses), p < 0.0001","decreased the augmented serotonin (p < 0.01, Figure 2d) at both doses, as well as 5-HIAA levels; also recorded: fully normalized the levels of serotonin and its metabolite 5-HIAA (both tested doses)"
same,amphetamine-increased brain dopamine level,[2]; [16],reversed to control values; also recorded: reversed to control value the elevated levels of dopamine
same,"brain monoamine levels, summary",[2]; [17],fully normalized hyper-locomotion and brain monoamine levels
same,"brain DOPAC concentration, lunasin per se",brain monoamine levels,Neither lunasin per se nor amphetamine changed the DOPAC concentration
same,"brain dopamine level, lunasin per se (words)",brain monoamine levels,significantly decreased dopamine level
same,"brain dopamine level, lunasin per se (words)",brain monoamine levels; listed as lunasin,significantly decreased dopamine levels
same,apomorphine-induced climbing activity,[3],reduced amphetamine-induced hyper-locomotion and apomorphine-induced climbing activity
same,effect on PCP hyperlocomotion (words),[4],Phencyclidine behavioural effects were not influenced
same,effect on PCP hyperlocomotion (words),[4]; listed as lunasin,did not influence the PCP effect; also recorded: we did not find any influence of lunasin on PCP-induced hyperactivity
same,inhibition of [125I]DOI specific binding,"5-HT2C receptor; 1 µM, HEK-293 cell membranes",4.7%
same,inhibition of [125I]DOI specific binding,"5-HT2C receptor; 10 µM, HEK-293 cell membranes",10.3%
same,inhibition of [125I]DOI specific binding,"5-HT2C receptor; 100 µM, HEK-293 cell membranes",59.7%
same,binding activity,"5-HT2C receptor; 100 µM, compared with 5-HT2A",more considerable
same,binding activity,5-HT2C receptor; [12],did not show binding activity
same,receptor affinity,"5-HT2C receptor; compared with DOI, abstract",low affinity of lunasin (at µM concentrations)
same,amphetamine-induced hyper-locomotion,[5],reduced amphetamine-induced hyper-locomotion
same,dopamine D2 receptor binding,[6],does not bind to the dopamine D2 receptor subtype
same,dopamine D1 receptor affinity,[7],has an affinity similar to that of dopamine
same,"Locomotion (distance, cm)","[8]; lunasin 1 nmol/mouse i.n. 15 min after DOI 3 mg/kg i.p., 15-min open field, n = 7–8",N
same,effect on DOI hyperactivity (words),[8]; n = 7–8,exerted protection against DOI-induced hyper-locomotion
same,effect on DOI hyperactivity (words),"[8]; n = 7–8, listed as lunasin",decreased hyperactivity
same,"hyper-locomotion, summary",[8]; [18],fully normalized hyper-locomotion
same,effect of lunasin per se on locomotion,[9],did not influence mouse activity
same,"5-HIAA (brain level, ng/g)",[10]; [19],N
same,"5-HT (brain level, ng/g)",[10]; [19],N
same,"NA (brain noradrenaline level, ng/g)",[10]; [19],N
same,"5-HIAA (brain level, ng/g)",[10]; [20],N
same,"5-HT (brain level, ng/g)",[10]; [20],N
same,"HVA (brain level, ng/g)",[10]; [20],N
same,"NA (brain noradrenaline level, ng/g)",[10]; [20],N
same,DOI-altered brain HVA level,[10]; [15],normalized the altered levels of HVA
same,DOI-altered brain noradrenaline level,"[10]; lunasin 0.1 and 1 nmol/mouse i.n. (both tested doses), p < 0.01",reversed amphetamine-induced and DOI-induced (both tested doses) noradrenaline alterations to the control values
same,DOI-increased brain 5-HIAA level,[10]; [16],reversed the DOI up-regulated levels of serotonin and 5-HIAA almost to the control values; also recorded: fully normalized them to the control values
same,DOI-increased brain serotonin level,[10]; [16],reversed the DOI up-regulated levels of serotonin and 5-HIAA almost to the control values; also recorded: fully normalized them to the control values
same,"brain monoamine levels, summary",[10]; [18],fully normalized hyper-locomotion and brain monoamine levels
same,DOI-increased brain DOPAC level,"[10]; lunasin i.n., dose not stated",These altered parameters were normalized by lunasin
same,DOI-lowered brain HVA level,"[10]; lunasin i.n., dose not stated",These altered parameters were normalized by lunasin
same,DOI-lowered brain noradrenaline level,"[10]; lunasin i.n., dose not stated",These altered parameters were normalized by lunasin
same,"Locomotion (distance, cm)",[11]; lunasin 0.1 nmol/mouse i.n. 15 min after amphetamine 3 mg/kg i.p.,N
same,effect on amphetamine hyperlocomotion,"[11]; lunasin 0.1 nmol/mouse i.n., p = 0.0031",considerably decreased; also recorded: normalized to control the level of behavioural changes after amphetamine injection
same,"Locomotion (distance, cm)",[11]; lunasin 1 nmol/mouse i.n. 15 min after amphetamine 3 mg/kg i.p.,N
same,effect on amphetamine hyperlocomotion,"[11]; lunasin 1 nmol/mouse i.n., p = 0.0018",considerably decreased; also recorded: normalized to control the level of behavioural changes after amphetamine injection
same,"hyper-locomotion, summary",[11]; [17],fully normalized hyper-locomotion
